Results reported in patent US5736533A, “Bacterial inhibition with an oligosaccharide compound” (Neose Technologies, Inc., priority 1995, dated 1998).
“And” between values parts separate entries of the source, which are not always exact repeats. Identical values can stand only once. Like-named read-outs stand apart in the source and are kept apart here.

How the values were obtained:
[1] = test system: H. influenzae (strain 46519); assay: inhibition of adherence of H. influenzae (strain 46519) to epithelial cells; type: cell-based; conditions: Haemophilus influenzae, Epithelial cell, read-out: IC50 [mean (SD)]
Excerpt: (§1) A method similar to that of Rostand, K. and Esko, (1993) J. Biol. Chem. 268 pp 24053-3, which studied the binding of radiolabelled P. aeruginosa to CHO cells was used to test for the binding inhibition of oligosaccharide compounds. For the studies described herein, S. pneumoniae (strains R-6, P70, and other clinical respiratory isolates) were labelled by culture in lysine-deficient tryptic soy broth containing ^3 H-lysine. The tryptic soy broth was made deficient in lysine by pre-treating it with lysine decarboxylase from E. coli. The bacteria were cultured for 4-5 hours, at which point the culture was in exponential growth. The bacteria were harvested and washed in Leibovitz L-15 Medium supplemented with 0.2% low-endotoxin bovine serum albumin. The bacteria were diluted to approximately 3×10^8 /mL, and then mixed 1:1 with either L-15-BSA or with various compounds to be tested. The bacterial mixtures were incubated at room temperature, with gentle agitation on an orbital shaker. After 10-15 min, samples of the bacterial mixtures were transferred to the surface of a confluent monolayer of cultured epithelial cells in a 96-well polystyrene plate. The cells most commonly used were the Wong-Kilbourne derivative of Chang conjunctiva. The human nasopharyngeal cell line Detroit 562, and the human lung cell line A549 were also used. The bacteria were incubated with the cells for 30 min with gentle agitation, at room temperature. The unbound bacteria were washed away with PBS containing 0.2% bovine serum albumin. Scintillant solution was added to the wells, and the plate was put in a microplate scintillation counter for quantitation of bound bacteria.
(§2) Adhesion of H. influenzae to epithelial cells was performed with the same protocol with the following modifications: The bacteria were cultured overnight in lysine-deficient Haemophilus test media. The bacteria were incubated with the cells at a concentration near 10^7 /mL for 60 min.
(§3) Using the testing protocol described in Example 2, four strains of bacteria were tested for binding inhibition by different oligosaccharide compounds.

[2] = test system: H. influenzae (strain 39689); assay: inhibition of adherence of H. influenzae (strain 39689) to epithelial cells; type: cell-based; conditions: Haemophilus influenzae, Epithelial cell, read-out: IC50 [mean (SD)]
Excerpt: as §1, §2, §3

S. pneumoniae = assay: inhibition of adherence of S. pneumoniae to respiratory epithelial cells; type: cell-based; conditions: Streptococcus pneumoniae
Escherichia coli C600 = conditions: Rosenstein et al (1992); cited from earlier work
[3] = test system: Burkholderia (Pseudomonas) cepacia; assay: inhibition of adherence of Burkholderia (Pseudomonas) cepacia to respiratory epithelial cells; type: cell-based
Excerpt: as §1, §3

Pseudomonas aeruginosa = conditions: Ramphal et al (1991); cited from earlier work
[4] = test system: Pseudomonas aeruginosa M35; conditions: Rosenstein et al (1992); isolate from cystic fibrosis patients; cited from earlier work
S. pneumoniae strain AII [5] = assay: colonization of rabbit lungs with S. pneumoniae in the presence of an adherence-inhibitory oligosaccharide; type: in vivo, New Zealand white rabbits; conditions: 100 μM
Excerpt: Rabbits S. pneumoniae strain AII were mixed with oligosacchardies and administered to New Zealand white rabbits by tracheal instillation, and lung lavage colonies were counted at the indicated time by the method described in Saukkonen, et al., 1991, J. Exp. Med. 173:1143-9.

[6] = test system: immunoglobulin E-binding protein; conditions: Feizi et al Biochemistry 1994; cited from earlier work
Escherichia coli = conditions: Ginsburg et al U.S. Pat. No. 5,225,330; cited from earlier work
Streptococcus pneumoniae = conditions: Andersson et al J. Exp. Med. (1983); cited from earlier work
S. pneumoniae strain AII [7] = assay: treatment of rabbits pre-colonized with S. pneumoniae with adherence-reversing oligosaccharide; type: in vivo, New Zealand white rabbits
Method: S. pneumonaie strain AII were administered to New Zealand white rabbits by tracheal instillation. All rabbits were sick at 24 h, with indications of pneumonia. After 24 h oligosaccharide (LNnT) or control (saline) was administered intratracheally. After an additional 24 h lung lavage colonies were counted as described in Example 3.

Mycoplasma pneumoniae = conditions: Ginsburg et al U.S. Pat. No. 5,225,330, Table I; cited from earlier work
[8] = A549, read-out: IC50 [mean (SD)], Monovalent, A549 human lung carcinoma, activated with IL1
[9] = Epithelial cell, read-out: IC50 [mean (SD)], Monovalent, Chang human conjunctival carcinoma
[10] = HUVEC, read-out: IC50 [mean (SD)], Monovalent, HUVEC activated with TNFα or thrombin
[11] = Burkholderia, Calu 3 cells, read-out: IC50 [mean (SD)]
[12] = experiment 1, inoculum 5 × 10^5 bacteria, intratracheal, 4 day lavage
[13] = experiment 2, inoculum 5 × 10^5 bacteria, intratracheal, 4 day lavage
[14] = experiment 3, inoculum 5 × 10^7 bacteria, 24 h lavage
[15] = Calu-3, read-out: IC50 [mean (SD)], Monovalent, CaLu-3 human lung carcinoma
[16] = Epithelial cell, read-out: IC50 [mean (SD)], Monovalent, Det-562 human nasopharyngeal carcinoma

`CC(=O)N[C@H]1[C@H](O[C@H]2[C@@H](O)[C@@H](CO)O[C@@H](O[C@H]3[C@H](O)[C@@H](O)C(O)O[C@@H]3CO)[C@@H]2O)O[C@H](CO)[C@H](O)[C@@H]1O` (stereo partly drawn) [Ga1NAc β1-3 Ga1β1-4 Glc, GalNAcβ1-3-Galβ1-4-Glc] gave an IC50 [1] of 4200 µM, an IC50 [2] of 10600 µM and an IC50 (S. pneumoniae; [8]) of 85 µM. The IC50 (S. pneumoniae; [9]) was over 6000 µM and the IC50 (S. pneumoniae; [10]) was 70 µM.
In the case of `CC(=O)N[C@H]1[C@H](O[C@H]2[C@@H](O)[C@@H](CO)O[C@@H](O[C@H]3[C@H](O)[C@@H](O)C(O)O[C@@H]3CO)[C@@H]2O)O[C@H](CO)[C@@H](O[C@@H]2O[C@H](CO[C@]3(C(=O)O)C[C@H](O)[C@@H](NC(C)=O)[C@H]([C@H](O)[C@H](O)CO)O3)[C@H](O)[C@H](O)[C@H]2O)[C@@H]1O` (stereo partly drawn) [LSTc, NeuAcα2-6-Galβ1-4-GlcNAcβ1-3-Galβ1-4-Glc], the binding activity (Escherichia coli C600) is listed as “no activity”, the IC50 [3, 11] is listed as 1000 µM and the IC50 ([3]; first table (P. cepacia), CaLu-3 lung carcinoma, read-out: IC50) is listed as 1000 µM. The IC50 [2] was over 10000 µM, the “activity in the direct adhesion assay” value (Pseudomonas aeruginosa) was “no activity” and the binding activity [4] was “no activity”. The “CFU (lung lavage)” value (S. pneumoniae strain AII [5]; [12]) was < 10 CFU (colonies/ml lavage fluid), the “CFU (lung lavage)” value (S. pneumoniae strain AII [5]; [13]) was 0 CFU (colonies/ml lavage fluid) and the “CFU (lung lavage)” value (S. pneumoniae strain AII [5]; [14]) was 0 CFU (colonies/ml lavage fluid). The “binding by immunoglobulin E-binding protein” value [6] was “not bound or is only negligibly bound”, the IC50 (S. pneumoniae; A549, first table, A549 lung carcinoma, activated with IL1) was 100 µM and the IC50 (S. pneumoniae; [8]) was 69 µM. It also gave an IC50 (S. pneumoniae; Calu-3, first table, CaLu-3 lung carcinoma) of 4400 µM, an IC50 (S. pneumoniae; [15]) of 4400 µM and an IC50 (S. pneumoniae; Epithelial cell, first table, 1° lung: rat tracheal primary epithelium) of 400 µM. It also gave an IC50 (S. pneumoniae; Epithelial cell, first table, CHANG cells) of 1500 µM, an IC50 (S. pneumoniae; Epithelial cell, first table, Det-562 nasopharyngeal carcinoma) of 5400 µM and an IC50 (S. pneumoniae; Epithelial cell, read-out: IC50 [mean (SD)], Monovalent, 1° lung: rat trachea epithelial monolayer (primary)) of 250 µM. The IC50 (S. pneumoniae; [9]) was 1400 µM, the IC50 (S. pneumoniae; [16]) was 4000 µM and the IC50 (S. pneumoniae; FaDu, first table, FaDu nasopharyngeal carcinoma) was 4000 µM. It also gave an IC50 (S. pneumoniae; FaDu, read-out: IC50 [mean (SD)], Monovalent, FaDu human nasopharyngeal carcinoma) of 4500 µM, an IC50 (S. pneumoniae; HUVEC, first table, HUVEC activated with TNFα or thrombin) of 100 µM and an IC50 (S. pneumoniae; [10]) of 69 µM.
In the case of `CC(=O)N[C@H]1[C@H](O[C@H]2[C@@H](O)[C@@H](CO)O[C@@H](O[C@H]3[C@H](O)[C@@H](O)C(O)O[C@@H]3CO)[C@@H]2O)O[C@H](CO)[C@@H](O)[C@@H]1O[C@@H]1O[C@H](CO)[C@H](O)[C@H](O[C@]2(C(=O)O)C[C@H](O)[C@@H](NC(C)=O)[C@H]([C@H](O)[C@H](O)CO)O2)[C@H]1O` (stereo partly drawn) [NeuAcα2-3-Galβ1-3-GlcNAcβ1-3-Galβ1-4-Glc, reference compound], the “binding by immunoglobulin E-binding protein” value [6] is given as “strongly bound”.
For N-glycolylsialoparagloboside, the inhibition (Escherichia coli) is listed as “inhibition”.
In the case of “NeuAcα2-3Galβ1-4-GlcNAcβ1-3-Galβ1-4-Glc--Cer [compound 3]”, the binding inhibition (Streptococcus pneumoniae) is listed as “no effect”.
`CC(=O)N[C@H]1[C@H](O[C@H]2[C@@H](O)[C@@H](CO)O[C@@H](O[C@H]3[C@H](O)[C@@H](O)C(O)O[C@@H]3CO)[C@@H]2O)O[C@H](CO)[C@@H](O[C@@H]2O[C@H](CO)[C@H](O)[C@H](O[C@@H]3O[C@H](CO)[C@H](O)[C@H](O)[C@H]3NC(C)=O)[C@H]2O)[C@@H]1O` (stereo partly drawn) [Ga1NAc β1-3 LNnT, GalNAcβ1-3-Galβ1-4-GlcNAcβ1-3-Galβ1-4-Glc] gave an IC50 [1] of 7800 µM, an IC50 [2] of over 10000 µM and an IC50 (S. pneumoniae; [8]) of 80 µM. For the same compound, the IC50 (S. pneumoniae; [10]) was 75 µM.
In the case of `CC(=O)N[C@H]1[C@H](O[C@H]2[C@@H](O)[C@@H](CO)O[C@@H](O[C@H]3[C@H](O)[C@@H](O)C(O)O[C@@H]3CO)[C@@H]2O)O[C@H](CO)[C@@H](O[C@@H]2O[C@H](CO)[C@H](O)[C@H](O)[C@H]2O)[C@@H]1O` (stereo partly drawn) [LNnT, Galβ1-4-GlcNAcβ1-3-Galβ1-4-Glc], the “condition of treated rabbits” value (S. pneumoniae strain AII [7]; at 48 h) is listed as “healthy”, the “CFU (lung lavage)” value (S. pneumoniae strain AII [7]; inoculum 10^5 bacteria, 100 μM intratracheal, lavage 24 h after oligosaccharide treatment and 48 h after bacterial instillation) is listed as 0 CFU and the binding activity (Escherichia coli C600) is listed as “high binding activity”. It also gave an IC50 [3, 11] of 5600 µM, an IC50 [1] of over 14000 µM and an IC50 [2] of over 14000 µM. For the same compound, the binding activity [4] was “high binding activity”, the “CFU (lung lavage)” value (S. pneumoniae strain AII [5]; experiment 1, inoculum 5 × 10^5 bacteria, intratracheal, 24 h lavage, 2 rabbits/group, one value per rabbit) was 8.7 × 10^2 CFU (colonies/ml lavage fluid) and 4.7 × 10^3 CFU (colonies/ml lavage fluid) and the “CFU (lung lavage)” value (S. pneumoniae strain AII [5]; [12]) was < 10 CFU (colonies/ml lavage fluid). The “CFU (lung lavage)” value (S. pneumoniae strain AII [5]; [13]) was 0 CFU (colonies/ml lavage fluid), the “CFU (lung lavage)” value (S. pneumoniae strain AII [5]; [14]) was 0 CFU (colonies/ml lavage fluid) and the “CFU (lung lavage)” value (S. pneumoniae strain AII [5]; experiment 4, inoculum 10^5 bacteria, intratracheal, 24 h lavage) was 1.1 × 10^3 CFU (colonies/ml lavage fluid) and 1.4 × 10^3 CFU (colonies/ml lavage fluid). It also gave an IC50 (S. pneumoniae; [8]) of 95 µM, an IC50 (S. pneumoniae; [15]) of over 16000 µM and an IC50 (S. pneumoniae; [9]) of 8000 µM. For the same compound, the IC50 (S. pneumoniae; [16]) was 7000 µM and the IC50 (S. pneumoniae; [10]) was 52 µM.
In the case of sialylparagoboside, the binding inhibition (Mycoplasma pneumoniae) is given as “no activity”.
`CC(=O)N[C@H]1[C@H](O[C@H]2[C@@H](O)[C@@H](CO)O[C@@H](O[C@H]3[C@H](O)[C@@H](O)C(O)O[C@@H]3CO)[C@@H]2O)O[C@H](CO)[C@@H](O[C@@H]2O[C@H](CO)[C@H](O)[C@H](O[C@]3(C(=O)O)C[C@H](O)[C@@H](NC(C)=O)[C@H]([C@H](O)[C@H](O)CO)O3)[C@H]2O)[C@@H]1O` (stereo partly drawn) [LSTd, NeuAcα2-3-Galβ1-4-GlcNAcβ1-3-Galβ1-4-Glc] showed an IC50 (S. pneumoniae; [8]) of 95 µM, an IC50 (S. pneumoniae; [9]) of 600 µM and an IC50 (S. pneumoniae; [10]) of 90 µM.
